EP4775208A1, “USE OF PRMT5 INHIBITOR IN TREATMENT OF TUMORS OR CANCERS” (Apeiron Therapeutics (Hong Kong) Ltd., priority 2023, dated 2025)

How the values were obtained:
[1] = tested on: HCT-116 MTAP(-/-) deficient cells; test: Inhibition of proliferation of HCT-116 MTAP(-/-) deficient cells (Cell-Titer Glo); assay type: cell-based; settings: 8 days
In short: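 Cells in log-phase growth, RPMI-1640 with 10% FBS, seeded and left overnight at 37°C, 5% CO2. Compound tested at 0–10,000 nM (10 points, 3-fold, 0.1% DMSO) for 8 days at 37°C, 5% CO2. Viability read by CellTiter-Glo luminescence.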

[2] = tested on: HCT-116 MTAP wild-type cells; test: Inhibition of proliferation of HCT-116 MTAP wild-type cells (Cell-Titer Glo); assay type: cell-based; settings: 8 days
In short: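 MTAP wild-type HCT-116 cells were seeded, cultured overnight and then exposed to compound from 10,000 nM down in a 10-point, 3-fold series (0.1% DMSO). Plates were incubated 8 days at 37°C, 5% CO2. Proliferation was read by Cell-Titer Glo viability luminescence.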

[3] = tested on: U87MG MTAP(-/-) cells; test: Inhibition of proliferation of U87MG MTAP(-/-) cells (CellTiter-Glo); assay type: cell-based; settings: cell proliferation, 6 days
Experimental: Test 7: Assay for Inhibitory Activity of Compounds against U87MG MTAP(-/-) Cell Proliferation
Materials and Cells: The U87MG MTAP(-/-) cell line was purchased from ATCC (USA). Cell culture media, fetal bovine serum (FBS), and penicillin-streptomycin were purchased from Thermo Fisher Scientific (USA). 384-well plates were purchased from PerkinElmer (USA). The CellTiter-Glo assay kit was purchased from Promega (USA).
Cell Culture: U87MG MTAP(-/-) cells were cultured in a medium supplemented with 10% fetal bovine serum (FBS) and 1% penicillin-streptomycin at 37°C with 5% CO2. Only cells in the logarithmic growth phase were used for experiments.
Cell Proliferation Inhibition Assay: The antiproliferative activity of the compounds against U87MG MTAP(-/-) cells was assessed using the CellTiter-Glo assay kit. Cell suspensions were adjusted to the appropriate density and seeded into 384-well plates at a volume of 40 µL per well, then incubated overnight at 37°C with 5% CO2. Compounds (40 nL) were added to each well to achieve final concentrations ranging from 0 to 10,000 nM (starting concentration 10,000 nM, 3-fold serial dilutions, 10 dose points), with a final DMSO concentration of […]. The cell plates were incubated at 37°C with 5% CO2 for 6 days. Subsequently, 40 µL of CellTiter-Glo reagent was added to measure cell viability. Paclitaxel was used as a control compound.

[4] = Mouse pharmacokinetic experiment (IV and PO, plasma); assay type: in vivo, ICR male mice; settings: male, mouse, plasma; ICR mice, PO(10mg/kg) vs IV(3mg/kg); read-out: Bioavailability F (%)
Experimental: II. Mouse Pharmacokinetic Experiment
The compounds used in this experiment are specific embodiments of the present invention, with reference to compound AMG473 as an example from Amgen's patent WO 2022/169948A1, identified as example 473.
ICR male mice, N=3/group; sourced from Zhejiang Vital River Laboratory Animal Technology Co., Ltd.
3. Drug Preparation and Administration
Single oral (PO) administration to ICR mice: Compounds were dissolved in dimethyl sulfoxide, added to polyethylene glycol 400 and sterile water, and then adjusted to a clear solution with a small amount of 1 mol/L hydrochloric acid. After overnight fasting, the mice were orally gavaged with a dose of 10 mg/kg. Single intravenous (IV) administration to ICR mice: Compounds were dissolved in dimethyl sulfoxide, added to polyethylene glycol 400 and sterile water, and then adjusted to a clear solution with a small amount of 1 mol/L hydrochloric acid. After overnight fasting, the mice received tail vein injections with a dose of 3 mg/kg.
Approximately 30 µL/time point blood samples were collected via the tail vein. Potassium ethylenediaminetetraacetate was used as an anticoagulant, and samples were centrifuged at 4000 g/min for 5 minutes at 4°C within 1 hour. Blood sampling time points were 0.0833 (IV), 0.25, 0.5, 1, 2, 4, 6, 8, 24 hours. Samples were stored in a -20°C freezer.
Plasma samples (30µL, 10µL sample + 20µL blank plasma) were mixed with 200µL ice-cold acetonitrile containing internal standards. After vortexing for 30 seconds, samples were centrifuged at 4000g/min for 20 minutes. One hundred microliters of the supernatant were transferred to a 96-well plate, followed by the addition of 200µL ultrapure water. After vortexing for 30 seconds, 5µL or 10µL were injected into LC-MS/MS for analysis. Table 7: Pharmacokinetic Data

IC50 ([1]; Homo sapiens, HCT-116, 192 h) [nM] | IC50 ([2]; Homo sapiens, HCT-116, 192 h) [nM] | IC50 ([3]; Homo sapiens, U-87 MG, 144 h) [nM] | bioavailability [4] [%] | Molecule | IC50 [1] [nM] | IC50 [2] [nM] | IC50 [3] [nM]
15.9 | 2040 | 176 |  | Cc1ncc2c(N)nc3ccc(C(=O)N(C)[C@@H]4COc5cc(C(F)(F)F)ccc54)cc3n12 [Example 39, (S)-4-amino-N,1-dime thyl-N-(6-(trifluoromethyl)-2,3-dihydrobenzofuran-3-yl)imidazo[1 ,5-a]quinoxaline-8-carboxamide] |  |  | 
32.1 | 9200 | 153 |  | Cc1ncc(-c2ccc3c(c2)OC[C@H]3N(C)C(=O)c2cc3c(cc2F)nc(N)c2cncn23)cn1 [Example 40, (S)-4-amino-7-fluoro-N-methyl-N-(6-(2-methylpyrimidin-5-yl)-2,3-dihydrobenzofuran-3-yl)imidazo[1,5-a]qu inoxaline-8-carboxamide] |  |  | 
10.3 | 947 | 60.6 |  | CN(C(=O)c1ccc2nc(N)c3cncn3c2c1)C1COc2cc(S(F)(F)(F)(F)F)ccc21 (stereo not drawn) [Example 45, 4-amino-N-methyl-N-(6-(pentafluoro-λ^6-sulfaneyl)-2,3-dihydrobenzofuran-3-yl)imidaz o[1,5-a]quinoxaline-8-carboxamide] |  |  | 
17.7 | 4100 | 475 |  | CN(C(=O)c1ccc2nc(N)c3cncn3c2c1)[C@@H]1COc2cc(-c3cncc(C(F)(F)F)c3)ccc21 [Example 47, (S)-4-amino-N-methy 1-N-(6-(5-(trifluoromethyl)pyridin-3-yl)-2,3-dihydrobenzofuran-3-yl)imidazo[1,5-a]quin oxaline-8-carboxamide] |  |  | 
11.8 | 1220 | 74.9 |  | CCN(C(=O)c1ccc2nc(N)c3cncn3c2c1)[C@@H]1COc2cc(C(F)(F)F)ccc21 [Example 55, (S)-4-amino-N-ethyl-N-(6-(trifluoromethyl) -2,3-dihydrobenzofuran-3-yl)imidazo[1,5-a] quinoxaline-8-carbox amide] |  |  | 
15.9 | 1530 | 108 |  | CN(C(=O)c1ccc2nc(N)c3cncn3c2c1)[C@@H]1COc2cc(OC(F)(F)F)ccc21 [Example 56, (S)-4-amino-N-methy 1-N-(6-(trifluoromethoxy)-2,3-dihydrobenzofuran-3-yl)imidazo[1,5-a]quinoxaline-8-car boxamide] |  |  | 
7.3 | 1170 | 72.1 |  | [2H]C([2H])([2H])N(C(=O)c1cc2c(cn1)nc(N)c1cncn12)[C@@H]1COc2cc(C(F)(F)F)ccc21 [Example 75, (S)-4-amino-N-(methyl-d3)-N-(6-(trifluoromethyl)-2,3-dihydrobenzofuran-3-yl)imidazo[1,5-a]pyrido[3,4-e]pyrazine-8-carb oxamide] |  |  | 
 |  |  |  | CN(C(=O)c1ccc2nc(N)c3cncn3c2c1)[C@@H]1COc2cc(C(F)(F)F)ccc21 [Example 79, (S)-4-amino-N-methy 1-N-(6-(trifluoromethyl)-2,3-dihydrobenzofuran-3-yl)imidazo[1,5-a]quinoxaline-8-carbo xamide-3-d] | 5.6 | 1300 | 83.3
39.3 | 9170 | 376 |  | COc1ccc2c(c1)OC[C@H]2N(C)C(=O)c1cc2c(cc1F)nc(N)c1cncn12 [Example 80, (S)-4-amino-7-fluoro-N-(6-methoxy-2,3-dihydrobenzofuran-3-yl)-N-methylimidazo[1,5-a]quinoxaline-8-carboxamide] |  |  | 
6.6 | 617 | 61.3 |  | CN(C(=O)c1cc2c(cc1F)nc(N)c1cncn12)[C@@H]1COc2cc(-c3ccnn3C)ccc21 [Example 117, (S)-4-amino-7-fluoro-N-methyl-N-(6-(1-methyl-1H-pyrazol-5-yl) -2,3-dihydrobenzofuran-3-yl)imidazo[1,5-a] quinoxaline-8-carbox amide] |  |  | 
13.5 | 1310 | 101 |  | Cc1cc(-c2ccc3c(c2)OC[C@H]3N(C)C(=O)c2cc3c(cc2F)nc(N)c2cncn23)on1 [Example 119, (S)-4-amino-7-fluoro-N-methyl-N-(6-(3-methylisoxazol-5-yl)-2,3-dihydrobenzofuran-3-yl)imidazo[1,5-a]qui noxaline-8-carboxamide] |  |  | 
50.6 | > 10000 | 777 |  | COC(=O)c1ccc2c(c1)OC[C@H]2N(C)C(=O)c1ccc2nc(N)c3cncn3c2c1 [Example 122, methyl (S)-3-(4-amino-N-methylimidazo[1,5-a]quinoxaline-8-carboxamido)-2,3-dihydrobenzofuran-6-carboxylate] |  |  | 
6.5 | 634 | 64.4 |  | CCN(C(=O)c1cc2c(cc1F)nc(N)c1cncn12)[C@@H]1COc2cc(C(F)(F)F)ccc21 [Example 124, (S)-4-amino-N-ethyl-7-fluoro-N-(6-(trifluor omethyl)-2,3-dihydrobenzofuran-3-yl)imid azo[1,5-a]quinoxaline-8-carboxamide] |  |  | 
5.8 | 1290 |  | 77.5 | CN(C(=O)c1ccc2nc(N)c3cncn3c2c1)[C@@H]1COc2cc(C(F)(F)C(F)(F)F)ccc21 [Example 130, (S)-4-amino-N-methy 1-N-(6-(perfluoroethyl)-2,3-dihydrobenzofuran-3-yl)imidazo[1,5-a]quinoxaline-8-carbox amide] |  |  | 
 |  |  |  | (S)-4-amino-7-fluoro-N-methyl-N-(6-(1-me thyl-1H-pyrazol-4-yl) -2,3-dihydrobenzofura n-3-yl)imidazo[1,5-a] quinoxaline-8-carbox amide [Example 34] | 29.6 | 6570 | 179
 |  |  |  | (S)-4-amino-N-methyl-N-(6-(trifluoromethyl)-2,3-dihydrobenzofuran-3-yl)imidazo[1,5-a]quinoxaline-8-carboxamide-1-d [Example 78] | 7.1 | 2070 | 211

Molecule | IC50 ([1]; Homo sapiens, HCT-116, 192 h) [nM] | IC50 ([2]; Homo sapiens, HCT-116, 192 h) [nM] | IC50 ([3]; Homo sapiens, U-87 MG, 144 h) [nM] | bioavailability [4] [%] | IC50 [1] [nM] | IC50 [2] [nM] | IC50 [3] [nM]
CN(C(=O)c1cc2c(cc1F)nc(N)c1cncn12)[C@@H]1COc2cc(S(C)(=O)=O)ccc21 [Example 38, (S)-4-amino-7-fluoro-N-methyl-N-(6-(methylsulfonyl)-2,3-dihydrobenzofuran-3-yl)imi dazo[1,5-a]quinoxaline-8-carboxamide] | 30 | 4060 | 443 |  |  |  | 
